Like-named read-outs stand apart in the source and are kept apart here. Marks after values point to notes of the source that are not given here.
Tests used:
CATIE patients = test: Kaplan-Meier survival (no hospitalization event) analysis, SULT4A1-1 negative vs positive; format: in vivo, human; settings: FIG. 8
Method: A Kaplan-Meier survival analysis was performed to determine whether there was a difference between the survival (hospitalization) rates for the SULT4A1-1 negative and SULT4A1-1 positive patient populations treated with each of the atypical antipsychotics. Survival plots model the fraction of the population that survived (i.e., no hospitalization event) as a function of time.

[1] = system: patients, unsegmented populations; settings: first generation antipsychotics; Davis et al. (2003); cited from earlier work
CATIE Caucasian subjects = test: Rate of hospitalization due to exacerbation of psychosis in CATIE by SULT4A1-1 status; format: in vivo, human; settings: CATIE Phases 1, 2 and/or 3
Excerpt: For this analysis, the inventors assigned a dichotomous value (positive or negative) for hospitalization status to subjects in each phase of the trial based on only the first hospitalization event for a given patient in that phase.

[2] = system: CATIE Caucasian schizophrenia patients; test: CATIE Phase 1 drug response: change in total PANSS (LOCF), drug switchers, segmented by SULT4A1-1 status; format: in vivo, human; settings: for ≦−20% (number of individuals with this percent change in total PANSS; responders) / ≧−20% (number of individuals with this percent change in total PANSS; non-responders): CATIE Caucasians, LOCF
Excerpt: There are several different metrics for quantifying response in clinical trials of antipsychotic medications. The most commonly used psychometric instrument is the Positive and Negative Syndrome Scale (PANSS), a 30-item semi-quantitative instrument scored by clinical professionals (Kay et al., 1987). The greater the decrease in PANSS score, the better the clinical response. The most direct measure of clinical response is absolute change in PANSS score. In addition to absolute change, the improvement is often reported as a percentage change from baseline PANSS score.
A decrease of at least 20% in total PANSS is one commonly used threshold for response (Leucht et al., 2009).
The design of the CATIE study has been described in detail by others (Lieberman et al., 2005; Stroup et al., 2003). […] A total of 738 subjects consented to provide DNA for genetic study. […] Retrospective genetic analyses, judged to be exempt from human studies requirements by an IRB, were conducted in the current study.
All tested patients were studied using well established clinical endpoints comparing baseline, intermediate, and last observation carried forward (LOCF) for the PANSS scores using CATIE data. LOCF analysis is a commonly used clinical endpoint for clinical trials for neuropsychiatric drugs, with changes in PANSS scores of between negative 20% and negative 30% used as typical endpoints to indicate clinically significant response (Leucht et al., 2009). To remove time on drug as a variable for the CATIE trial, analysis was limited to only those patients who were randomized to a different drug following the initial washout period (drug switchers).
As mentioned previously, the mean change in absolute or percent PANSS provides an important measure of efficacy in patients undergoing antipsychotic treatments. Indeed, many pivotal trials in the psychosis field used absolute and/or percentage change in PANSS Score as the primary endpoint (Leucht et al., 2009). […] Therefore, in addition to examining a categorical definition of clinically significant response, the inventors determined the impact of segmentation by SULT4A1-1 status on the quantitative measure of clinical improvement—delta PANSS.

[3] = system: CATIE Caucasian schizophrenia patients; test: Time to discontinuation for all causes in the CATIE study; format: in vivo, human; settings: SULT4A1-1 Negative
Excerpt: The primary endpoint for the CATIE study was time to discontinuation for all causes (Lieberman et al., 2005). Thus the inventors evaluated the effect of SULT41-1 status on this important parameter.

[4] = system: CATIE Phase I non-responders; settings: CATIE Phase II, LOCF; for Responders (number): decrease PANSS ≧ 20%
[5] = system: patients, unsegmented populations; settings: Meta-analysis, Leucht et al. (2009); cited from earlier work
[6] = Table 16, 20% decrease in PANSS threshold, SULT4A1-1 positive group (sign not given)

## OCCOCCN1CCN(C2=Nc3ccccc3Sc3ccccc32)CC1 [Quetiapine]
CATIE patients
  Difference between survival (no hospitalization) rates of SULT4A1-1 negative and SULT4A1-1 positive patients: significant difference
[1]
  Effect Size vs. FGA: 0.01
CATIE Caucasian subjects; SULT4A1-1 Positive
  HOSP (number of subjects hospitalized): 1
  HOSP (rate of hospitalization): (2.9%)
CATIE Caucasian subjects; SULT4A1-1 negative
  HOSP (number of subjects hospitalized): 24
  HOSP (rate of hospitalization): (19.5%)
CATIE Caucasian subjects; Unsegmented
  HOSP (number of subjects hospitalized): 25
[2]; CATIE SULT4A1-1 −
  Mean Difference in Total PANSS Score, Olanzapine vs. labelled drug: −3.8
[2]; CATIE unsegmented
  Mean Difference in Total PANSS Score, Olanzapine vs. labelled drug: −6.2
[2]; SULT4A1-1 Negative
  ≦−20% (number of individuals with this percent change in total PANSS; responders): 13
  ≧−20% (number of individuals with this percent change in total PANSS; non-responders): 50
[2]; SULT4A1-1 Positive
  ≦−20% (number of individuals with this percent change in total PANSS; responders): 7
  ≧−20% (number of individuals with this percent change in total PANSS; non-responders): 11
[2]; [6]
  Non Responder (number): 11
  Responder (number): 7
[3]
  Time to discontinuation, mean time in months: 8.6*** Months
[4]; SULT4A1-1 Negative
  Nonresponders (number): 10
  Responders (number): 1
[4]; SULT4A1-1 Positive
  Nonresponders (number): 1
  Responders (number): 0
[5]
  Mean Difference in Total PANSS Score, Olanzapine vs. labelled drug: −3.7
